Results: PubChem BioAssay (NCI)
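The compound was tested at five concentrations on cells cultured in 96-well plates, with a 48-hour exposure period. Definition used: TGI = concentration required for complete inhibition of growth.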

Legend:
Assay in all cases: NCI tumour cell line growth inhibition, 48 h
[1] = system: 786-0 renal
[2] = system: A549 NSCLC
[3] = system: ACHN renal
[4] = system: BT-549 breast
[5] = system: CAKI-1 renal
[6] = system: CCRF-CEM leukemia
[7] = system: COLO 205 colon
[8] = system: DU-145 prostate
[9] = system: EKVX NSCLC
[10] = system: HCC-2998 colon
[11] = system: HCT-116 colon
[12] = system: HCT-15 colon
[13] = system: HL-60(TB) leukemia
[14] = system: HOP-62 NSCLC
[15] = system: HOP-92 NSCLC
[16] = system: HS 578T breast
[17] = system: HT29 colon
[18] = system: IGROV1 ovarian
[19] = system: K-562 leukemia
[20] = system: KM12 colon
[21] = system: LOX IMVI melanoma
[22] = system: M14 melanoma
[23] = system: MALME-3M melanoma
[24] = system: MCF7 breast
[25] = system: MDA-MB-231 breast
[26] = system: MDA-MB-435
[27] = system: MDA-N
[28] = system: MOLT-4 leukemia
[29] = system: NCI-H226 lung
[30] = system: NCI-H23 lung
[31] = system: NCI-H460 lung
[32] = system: NCI-H522 lung
[33] = system: NCI/ADR-RES ovarian
[34] = system: OVCAR-3 ovarian
[35] = system: OVCAR-4 ovarian
[36] = system: OVCAR-5 ovarian
[37] = system: OVCAR-8 ovarian
[38] = system: PC-3 prostate
[39] = system: RPMI-8226 leukemia
[40] = system: RXF 393 renal
[41] = system: SF-268 CNS
[42] = system: SF-295 CNS
[43] = system: SF-539 CNS
[44] = system: SK-MEL-2 melanoma
[45] = system: SK-MEL-28 melanoma
[46] = system: SK-MEL-5 melanoma
[47] = system: SK-OV-3 ovarian
[48] = system: SN12C renal
[49] = system: SNB-19 CNS
[50] = system: SNB-75 CNS
[51] = system: SR leukemia
[52] = system: SW-620 colon
[53] = system: T-47D breast
[54] = system: TK-10 renal
[55] = system: U251 CNS
[56] = system: UACC-257 melanoma
[57] = system: UACC-62 melanoma
[58] = system: UO-31 renal
[59] = system: A498 renal

For `COC(=O)c1ccccc1C1CN=NC12Cc1ccccc1C2=O` (centres undefined), the TGI [1] was over 100 µM, the TGI [2] was over 100 µM and the TGI [3] was over 100 µM. The TGI [4] was over 100 µM, the TGI [5] was over 100 µM and the TGI [6] was over 100 µM. It also gave a TGI [7] of over 100 µM, a TGI [8] of over 100 µM and a TGI [9] of over 100 µM. It also gave a TGI [10] of over 100 µM, a TGI [11] of over 100 µM and a TGI [12] of over 100 µM. The TGI [13] was over 100 µM, the TGI [14] was over 100 µM and the TGI [15] was over 100 µM. The TGI [16] was over 100 µM, the TGI [17] was over 100 µM and the TGI [18] was over 100 µM. It also gave a TGI [19] of over 100 µM, a TGI [20] of over 100 µM and a TGI [21] of over 100 µM. The TGI [22] was over 100 µM, the TGI [23] was over 100 µM and the TGI [24] was over 100 µM. The TGI [25] was over 100 µM, the TGI [26] was over 100 µM and the TGI [27] was over 100 µM. It also gave a TGI [28] of over 100 µM, a TGI [29] of over 100 µM and a TGI [30] of over 100 µM. For the same molecule, the TGI [31] was over 100 µM, the TGI [32] was over 100 µM and the TGI [33] was over 100 µM. The TGI [34] was over 100 µM, the TGI [35] was over 100 µM and the TGI [36] was over 100 µM. For the same molecule, the TGI [37] was over 100 µM, the TGI [38] was over 100 µM and the TGI [39] was over 100 µM. For the same molecule, the TGI [40] was over 100 µM, the TGI [41] was over 100 µM and the TGI [42] was over 100 µM. For the same molecule, the TGI [43] was over 100 µM, the TGI [44] was over 100 µM and the TGI [45] was over 100 µM. For the same molecule, the TGI [46] was over 100 µM, the TGI [47] was over 100 µM and the TGI [48] was over 100 µM. For the same molecule, the TGI [49] was over 100 µM, the TGI [50] was over 100 µM and the TGI [51] was over 100 µM. For the same molecule, the TGI [52] was over 100 µM, the TGI [53] was over 100 µM and the TGI [54] was over 100 µM. For the same molecule, the TGI [55] was over 100 µM, the TGI [56] was over 100 µM and the TGI [57] was over 100 µM. The TGI [58] was over 100 µM.
`Cc1c(CCN2CCOCC2)c(N2CCOCC2)n2c(nc3ccccc32)c1C#N` was tested, and the TGI [1] was over 10 µM, the TGI [59] was over 10 µM and the TGI [2] was over 10 µM. The TGI [3] was over 10 µM, the TGI [4] was over 10 µM and the TGI [5] was over 10 µM. The TGI [6] was over 10 µM, the TGI [7] was over 10 µM and the TGI [8] was over 10 µM. It also gave a TGI [9] of over 10 µM, a TGI [11] of over 10 µM and a TGI [12] of over 10 µM. For the same molecule, the TGI [13] was over 10 µM, the TGI [14] was over 10 µM and the TGI [15] was over 10 µM. It also gave a TGI [16] of over 10 µM, a TGI [17] of over 10 µM and a TGI [18] of over 10 µM. The TGI [19] was over 10 µM, the TGI [20] was over 10 µM and the TGI [21] was over 10 µM. It also gave a TGI [22] of over 10 µM, a TGI [23] of over 10 µM and a TGI [24] of over 10 µM. The TGI [25] was over 10 µM, the TGI [26] was over 10 µM and the TGI [27] was over 10 µM. The TGI [28] was over 10 µM, the TGI [29] was over 10 µM and the TGI [30] was over 10 µM. For the same molecule, the TGI [31] was over 10 µM, the TGI [33] was over 10 µM and the TGI [34] was over 10 µM. For the same molecule, the TGI [35] was over 10 µM, the TGI [36] was over 10 µM and the TGI [37] was over 10 µM. The TGI [38] was over 10 µM, the TGI [39] was over 10 µM and the TGI [40] was over 10 µM. For the same molecule, the TGI [41] was over 10 µM, the TGI [42] was over 10 µM and the TGI [43] was over 10 µM. It also gave a TGI [45] of over 10 µM, a TGI [46] of over 10 µM and a TGI [47] of over 10 µM. The TGI [48] was over 10 µM, the TGI [49] was over 10 µM and the TGI [50] was over 10 µM. For the same molecule, the TGI [51] was over 10 µM, the TGI [52] was over 10 µM and the TGI [53] was over 10 µM. The TGI [54] was over 10 µM, the TGI [55] was over 10 µM and the TGI [56] was over 10 µM. It also gave a TGI [57] of over 10 µM and a TGI [58] of over 10 µM.
`COc1cc(C2SCC(=O)N2c2ccc(-n3c(-c4ccccc4)nc4ccccc4c3=O)cc2)cc(OC)c1OC` (centres undefined) was tested, and the TGI [1] was over 100 µM, the TGI [59] was over 100 µM and the TGI [2] was over 100 µM. The TGI [3] was over 100 µM, the TGI [4] was over 100 µM and the TGI [5] was over 100 µM. It also gave a TGI [6] of over 100 µM, a TGI [7] of over 100 µM and a TGI [8] of over 100 µM. For the same molecule, the TGI [9] was over 100 µM, the TGI [10] was over 100 µM and the TGI [11] was over 100 µM. The TGI [12] was over 100 µM, the TGI [13] was over 100 µM and the TGI [14] was over 100 µM. It also gave a TGI [15] of 84.2 µM, a TGI [16] of over 100 µM and a TGI [17] of over 100 µM. For the same molecule, the TGI [18] was over 100 µM, the TGI [19] was over 100 µM and the TGI [20] was over 100 µM. The TGI [21] was over 100 µM, the TGI [24] was over 100 µM and the TGI [25] was over 100 µM. It also gave a TGI [26] of over 100 µM, a TGI [27] of over 100 µM and a TGI [28] of over 100 µM. For the same molecule, the TGI [30] was over 100 µM, the TGI [31] was over 100 µM and the TGI [32] was over 100 µM. For the same molecule, the TGI [33] was over 100 µM, the TGI [34] was over 100 µM and the TGI [35] was over 100 µM. The TGI [36] was over 100 µM, the TGI [37] was over 100 µM and the TGI [38] was over 100 µM. It also gave a TGI [39] of over 100 µM, a TGI [41] of over 100 µM and a TGI [42] of over 100 µM. It also gave a TGI [43] of over 100 µM, a TGI [44] of over 100 µM and a TGI [45] of over 100 µM. For the same molecule, the TGI [46] was over 100 µM, the TGI [47] was over 100 µM and the TGI [48] was over 100 µM. It also gave a TGI [49] of over 100 µM, a TGI [51] of over 100 µM and a TGI [52] of over 100 µM. The TGI [53] was over 100 µM, the TGI [54] was over 100 µM and the TGI [55] was over 100 µM. For the same molecule, the TGI [56] was over 100 µM, the TGI [57] was over 100 µM and the TGI [58] was 71.4 µM.
`CC(=C/C=C/C=C(C)\C=C\C=C(\C)C(=O)O)/C=C/C=C(/C)C(=O)O` showed a TGI [1] of over 100 µM, a TGI [59] of over 100 µM and a TGI [2] of over 100 µM. The TGI [3] was over 100 µM, the TGI [4] was over 100 µM and the TGI [5] was over 100 µM. The TGI [6] was over 100 µM, the TGI [7] was over 100 µM and the TGI [8] was over 100 µM. For the same molecule, the TGI [11] was over 100 µM, the TGI [12] was over 100 µM and the TGI [13] was over 100 µM. For the same molecule, the TGI [14] was over 100 µM, the TGI [15] was over 100 µM and the TGI [16] was over 100 µM. It also gave a TGI [17] of over 100 µM, a TGI [18] of over 100 µM and a TGI [19] of over 100 µM. It also gave a TGI [20] of over 100 µM, a TGI [21] of over 100 µM and a TGI [22] of over 100 µM. It also gave a TGI [23] of over 100 µM, a TGI [24] of over 100 µM and a TGI [25] of over 100 µM. The TGI [26] was over 100 µM, the TGI [27] was over 100 µM and the TGI [28] was over 100 µM. The TGI [29] was over 100 µM, the TGI [30] was over 100 µM and the TGI [31] was over 100 µM. For the same molecule, the TGI [32] was over 100 µM, the TGI [33] was over 100 µM and the TGI [34] was over 100 µM. For the same molecule, the TGI [35] was over 100 µM, the TGI [36] was over 100 µM and the TGI [37] was over 100 µM. For the same molecule, the TGI [38] was over 100 µM, the TGI [39] was over 100 µM and the TGI [40] was over 100 µM. The TGI [41] was over 100 µM, the TGI [42] was over 100 µM and the TGI [43] was over 100 µM. For the same molecule, the TGI [44] was over 100 µM, the TGI [45] was over 100 µM and the TGI [46] was over 100 µM. The TGI [47] was over 100 µM, the TGI [48] was over 100 µM and the TGI [50] was over 100 µM. It also gave a TGI [51] of over 100 µM, a TGI [52] of over 100 µM and a TGI [53] of over 100 µM. For the same molecule, the TGI [54] was over 100 µM, the TGI [55] was over 100 µM and the TGI [56] was over 100 µM. The TGI [57] was over 100 µM and the TGI [58] was over 100 µM.
